Reference: ChEMBL document CHEMBL1201862, “PubChem BioAssay data set” (2004)
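How tested: cells in 96-well plates exposed to compound for 48 hours at five concentrations. Abbreviation: GI50, concentration required for 50% inhibition of growth.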 The source made the active and inactive calls. Cut-off read from the data, not from the text of the source: active = GI50 up to about 1.1 µM and inactive = higher.

Key:
Assay in all cases: NCI anticancer screen, dose series, 48 h
XF498 = test system: XF498
Malme-3M = test system: Malme-3M
HT-29 = test system: HT-29
HL-60 = test system: HL-60
SF-295 = test system: SF-295
MOLT-4 = test system: MOLT-4
LXFL 529 = test system: LXFL 529
SW-620 = test system: SW-620
SN12C = test system: SN12C
DLD-1 = test system: DLD-1
SNB-19 = test system: SNB-19
HCT-116 = test system: HCT-116
RPMI-8226 = test system: RPMI-8226
LOX IMVI = test system: LOX IMVI
NCI-H522 = test system: NCI-H522
HOP-92 = test system: HOP-92
NCI-H23 = test system: NCI-H23
UO-31 = test system: UO-31
K562 = test system: K562
SK-OV-3 = test system: SK-OV-3
KM-20L2 = test system: KM-20L2
SF-268 = test system: SF-268
OVCAR-4 = test system: OVCAR-4
TK-10 = test system: TK-10
SK-MEL-28 = test system: SK-MEL-28
SR = test system: SR
SK-MEL-2 = test system: SK-MEL-2
HCT-15 = test system: HCT-15
OVCAR-3 = test system: OVCAR-3
RXF 631 = test system: RXF 631
HCC 2998 = test system: HCC 2998
M19-MEL = test system: M19-MEL
ACHN = test system: ACHN
M14 = test system: M14
CAKI-1 = test system: CAKI-1
KM12 = test system: KM12
OVCAR-8 = test system: OVCAR-8
IGROV-1 = test system: IGROV-1
U-251 = test system: U-251
OVCAR-5 = test system: OVCAR-5
SNB-78 = test system: SNB-78
DMS-273 = test system: DMS-273
UACC-257 = test system: UACC-257
SNB-75 = test system: SNB-75
HOP-62 = test system: HOP-62
COLO 205 = test system: COLO 205
NCI-H460 = test system: NCI-H460
UACC-62 = test system: UACC-62
A549 = test system: A549
RXF 393 = test system: RXF 393
A498 = test system: A498
EKVX = test system: EKVX
SF-539 = test system: SF-539
SK-MEL-5 = test system: SK-MEL-5
786-0 = test system: 786-0
CCRF-CEM = test system: CCRF-CEM
DMS-114 = test system: DMS-114
NCI-H226 = test system: NCI-H226

With `O=[N+]([O-])c1ccc(-c2ccc(-c3csc(Nc4ccccn4)n3)o2)cc1` the GI50 (XF498) was 22.7 µM (inactive), the GI50 (Malme-3M) was 32.3 µM (inactive) and the GI50 (HT-29) was > 100 µM (inactive). For the same compound, the GI50 (HL-60) was > 100 µM (inactive), the GI50 (SF-295) was 46.3 µM (inactive) and the GI50 (MOLT-4) was > 100 µM (inactive). The GI50 (LXFL 529) was 25.1 µM (inactive), the GI50 (SW-620) was > 100 µM (inactive) and the GI50 (SN12C) was 41.4 µM (inactive). For the same compound, the GI50 (DLD-1) was > 100 µM (inactive), the GI50 (SNB-19) was 20.2 µM (inactive) and the GI50 (HCT-116) was 47.9 µM (inactive). For the same compound, the GI50 (RPMI-8226) was > 100 µM (inactive), the GI50 (LOX IMVI) was 63.4 µM (inactive) and the GI50 (NCI-H522) was > 100 µM (inactive). For the same compound, the GI50 (HOP-92) was > 100 µM (inactive), the GI50 (NCI-H23) was > 10 µM (inactive) and the GI50 (UO-31) was > 100 µM (inactive). The GI50 (K562) was 66.5 µM (inactive), the GI50 (SK-OV-3) was 14.3 µM (inactive) and the GI50 (KM-20L2) was > 100 µM (inactive). The GI50 (SF-268) was 19.7 µM (inactive), the GI50 (OVCAR-4) was 4.76 µM (inactive) and the GI50 (TK-10) was 26.9 µM (inactive). The GI50 (SK-MEL-28) was 95.7 µM (inactive), the GI50 (SR) was > 100 µM (inactive) and the GI50 (SK-MEL-2) was > 100 µM (inactive). For the same compound, the GI50 (HCT-15) was 79.8 µM, the GI50 (OVCAR-3) was > 100 µM (inactive) and the GI50 (RXF 631) was 35.4 µM (inactive). The GI50 (HCC 2998) was > 100 µM (inactive), the GI50 (M19-MEL) was 58.6 µM (inactive) and the GI50 (ACHN) was 45.8 µM (inactive). The GI50 (M14) was 59.6 µM (inactive), the GI50 (CAKI-1) was > 100 µM (inactive) and the GI50 (KM12) was 49.5 µM (inactive). For the same compound, the GI50 (OVCAR-8) was 64.7 µM (inactive), the GI50 (IGROV-1) was > 100 µM (inactive) and the GI50 (U-251) was 13.8 µM (inactive). The GI50 (OVCAR-5) was > 100 µM (inactive), the GI50 (SNB-78) was 28.2 µM (inactive) and the GI50 (DMS-273) was 35.2 µM (inactive). For the same compound, the GI50 (UACC-257) was > 100 µM (inactive), the GI50 (SNB-75) was > 100 µM (inactive) and the GI50 (HOP-62) was 31.2 µM (inactive). For the same compound, the GI50 (COLO 205) was > 100 µM (inactive), the GI50 (NCI-H460) was > 10 µM (inactive) and the GI50 (UACC-62) was 29.9 µM (inactive).

For `COc1ccc(S(=O)(=O)N/N=C/CN2C(=O)c3ccccc3C2=O)cc1OC`, the GI50 (XF498) was > 100 µM (inactive), the GI50 (Malme-3M) was > 100 µM (inactive) and the GI50 (A549) was > 100 µM (inactive). The GI50 (HT-29) was > 100 µM (inactive), the GI50 (HL-60) was > 100 µM (inactive) and the GI50 (SF-295) was > 100 µM (inactive). The GI50 (RXF 393) was > 100 µM (inactive), the GI50 (MOLT-4) was > 100 µM (inactive) and the GI50 (LXFL 529) was > 100 µM (inactive). For the same compound, the GI50 (SW-620) was > 100 µM (inactive), the GI50 (DLD-1) was > 100 µM (inactive) and the GI50 (SNB-19) was > 100 µM (inactive). For the same compound, the GI50 (HCT-116) was > 100 µM (inactive), the GI50 (RPMI-8226) was > 100 µM (inactive) and the GI50 (LOX IMVI) was > 100 µM (inactive). The GI50 (NCI-H522) was > 100 µM (inactive), the GI50 (NCI-H23) was > 100 µM (inactive) and the GI50 (UO-31) was > 100 µM (inactive). For the same compound, the GI50 (K562) was > 100 µM (inactive), the GI50 (SK-OV-3) was > 100 µM (inactive) and the GI50 (KM-20L2) was > 100 µM (inactive). For the same compound, the GI50 (SF-268) was > 100 µM (inactive), the GI50 (OVCAR-4) was > 100 µM (inactive) and the GI50 (SR) was > 100 µM (inactive). For the same compound, the GI50 (A498) was > 100 µM (inactive), the GI50 (EKVX) was > 100 µM (inactive) and the GI50 (SF-539) was > 100 µM (inactive). The GI50 (SK-MEL-2) was > 100 µM (inactive), the GI50 (HCT-15) was over 100 µM and the GI50 (SK-MEL-5) was > 100 µM (inactive). For the same compound, the GI50 (OVCAR-3) was > 100 µM (inactive), the GI50 (786-0) was > 100 µM (inactive) and the GI50 (RXF 631) was > 100 µM (inactive). For the same compound, the GI50 (HCC 2998) was > 100 µM (inactive), the GI50 (M19-MEL) was > 100 µM (inactive) and the GI50 (ACHN) was > 100 µM (inactive). The GI50 (M14) was > 100 µM (inactive), the GI50 (CAKI-1) was > 100 µM (inactive) and the GI50 (KM12) was > 100 µM (inactive). For the same compound, the GI50 (OVCAR-8) was > 100 µM (inactive), the GI50 (IGROV-1) was > 100 µM (inactive) and the GI50 (U-251) was > 100 µM (inactive). The GI50 (CCRF-CEM) was > 100 µM (inactive), the GI50 (DMS-114) was > 100 µM (inactive) and the GI50 (DMS-273) was > 100 µM (inactive). For the same compound, the GI50 (UACC-257) was > 100 µM (inactive), the GI50 (SNB-75) was 65.2 µM (inactive) and the GI50 (HOP-62) was > 100 µM (inactive). For the same compound, the GI50 (COLO 205) was > 100 µM (inactive), the GI50 (NCI-H460) was > 100 µM (inactive) and the GI50 (UACC-62) was > 100 µM (inactive).

For `O=S(=O)(c1ccccc1)C1CN2OC1(S(=O)(=O)c1ccccc1)CC2c1ccc(Br)cc1` (stereo not drawn), the GI50 (XF498) was 18.6 µM (inactive), the GI50 (Malme-3M) was > 100 µM (inactive) and the GI50 (A549) was > 100 µM (inactive). The GI50 (HT-29) was > 100 µM (inactive), the GI50 (HL-60) was > 100 µM (inactive) and the GI50 (SF-295) was 31.8 µM (inactive). The GI50 (RXF 393) was 13.2 µM (inactive), the GI50 (MOLT-4) was > 100 µM (inactive) and the GI50 (SW-620) was > 100 µM (inactive). For the same compound, the GI50 (SN12C) was > 100 µM (inactive), the GI50 (DLD-1) was > 100 µM (inactive) and the GI50 (SNB-19) was 46.8 µM (inactive). The GI50 (HCT-116) was > 100 µM (inactive), the GI50 (RPMI-8226) was > 100 µM (inactive) and the GI50 (LOX IMVI) was 92 µM (inactive). The GI50 (NCI-H226) was > 100 µM (inactive), the GI50 (NCI-H522) was 34 µM (inactive) and the GI50 (HOP-92) was 66.2 µM (inactive). For the same compound, the GI50 (NCI-H23) was > 100 µM (inactive), the GI50 (UO-31) was 37.9 µM (inactive) and the GI50 (K562) was > 100 µM (inactive). For the same compound, the GI50 (SK-OV-3) was > 100 µM (inactive), the GI50 (KM-20L2) was > 100 µM (inactive) and the GI50 (SF-268) was 14.9 µM (inactive). For the same compound, the GI50 (OVCAR-4) was 15.4 µM (inactive), the GI50 (TK-10) was 59 µM (inactive) and the GI50 (SK-MEL-28) was > 100 µM (inactive). For the same compound, the GI50 (A498) was 96.4 µM (inactive), the GI50 (EKVX) was > 100 µM (inactive) and the GI50 (SF-539) was 17.7 µM (inactive). The GI50 (SK-MEL-2) was > 100 µM (inactive), the GI50 (HCT-15) was over 100 µM and the GI50 (SK-MEL-5) was 90.6 µM (inactive). The GI50 (OVCAR-3) was 84.7 µM (inactive), the GI50 (786-0) was 38.1 µM (inactive) and the GI50 (RXF 631) was 26.5 µM (inactive). The GI50 (HCC 2998) was > 100 µM (inactive), the GI50 (M19-MEL) was > 100 µM (inactive) and the GI50 (ACHN) was 45.4 µM (inactive). For the same compound, the GI50 (M14) was > 100 µM (inactive), the GI50 (CAKI-1) was 60 µM (inactive) and the GI50 (KM12) was > 100 µM (inactive). For the same compound, the GI50 (OVCAR-8) was > 100 µM (inactive), the GI50 (IGROV-1) was > 100 µM (inactive) and the GI50 (U-251) was 54.2 µM (inactive). The GI50 (OVCAR-5) was > 100 µM (inactive), the GI50 (CCRF-CEM) was > 100 µM (inactive) and the GI50 (DMS-114) was > 100 µM (inactive). For the same compound, the GI50 (DMS-273) was > 100 µM (inactive), the GI50 (UACC-257) was 68.4 µM (inactive) and the GI50 (SNB-75) was 5.21 µM (inactive). For the same compound, the GI50 (HOP-62) was 34.3 µM (inactive), the GI50 (NCI-H460) was > 100 µM (inactive) and the GI50 (UACC-62) was > 100 µM (inactive).
